# US8440674B2, “Substituted pyrimidine compounds as RAF inhibitors and methods of use” (Amgen Inc., priority 2005, dated 2013)
# pIC50: −log10 of the molar value. Like-named read-outs stand apart in the source and are kept apart here.
# What was measured:
# [1] = test system: A375 cells, a human melanoma cell line having the V600E mutant Braf; assay: B-Raf cell-based assay (ratio of phospho-ERK1/2 to total ERK1/2); settings: A-375, 1 h, P-ERK/total ERK, 60 minute incubation, read-out: IC50 for the inhibition of B-raf as measured by the cell-based assay
# Procedure: A cell-based assay was optimized to assay the ability of compounds to inhibit Braf activity in a whole cell context. […] The cell-based assay quantifies the ratio of phospho-ERK1/2 to total ERK1/2 and can thereby assay the cellular inhibition of Braf kinase activity.
# A375 cells are plated into 96 well plates and grown to confluence. The cells are then changed into starve media (DMEM/0.1% BSA) for 60 minutes. Compounds in DMSO dose curves are then diluted in starve media and added to cells. […] After a 60 minute incubation the cells are fixed for 20 minutes at room temperature in 4% formaldehyde with 0.1%Triton X-100, protease and phosphatase inhibitors in PBS. The cells are washed four times in PBS then blocked for 60 minutes using a one to one mix of Odyssey blocking buffer (Li-Cor Biosciences, Inc) and PBS. Primary antibodies (rabbit anti-phospho p42/p44 MAPK (P-ERK1/2) from Cell Signaling Technology and mouse anti-ERK2 from Santa Cruz Biotechnology) are diluted in blocking buffer, added to the cells and incubated overnight at 4° C. The cells are then washed four times in PBS/0.1% Tween-20. Secondary antibodies (anti-mouse IRDye 800CW from Rockland, Inc and anti-rabbit AlexaFlour680 from Molecular Probes) are diluted in blocking buffer/0.5% Tween and incubated on cells for 60 minutes. After 4 washes in PBS/0.1% Tween-20 the microplate is scanned on an Odyssey Infrared Imager (Li-Cor Bioscience) which can read the signal given by the two secondary antibodies on their respective channels. The ratio of P-ERK/total ERK is determined and IC50s generated using Excel-XLfit software.
# [2] = target: recombinant HuBraf V600E (Homo sapiens, UniProt P15056, V600E); assay: B-raf Homogenous Time Resolved Fluorescent (HTRF) kinase assay; type: biochemical; settings: substrate MEK1, 10 uM ATP; threshold lists; read-out: IC50 for the inhibition of B-raf as measured by the HTRF assay
# Sequence of recombinant HuBraf V600E (P15056 whole entry V600E): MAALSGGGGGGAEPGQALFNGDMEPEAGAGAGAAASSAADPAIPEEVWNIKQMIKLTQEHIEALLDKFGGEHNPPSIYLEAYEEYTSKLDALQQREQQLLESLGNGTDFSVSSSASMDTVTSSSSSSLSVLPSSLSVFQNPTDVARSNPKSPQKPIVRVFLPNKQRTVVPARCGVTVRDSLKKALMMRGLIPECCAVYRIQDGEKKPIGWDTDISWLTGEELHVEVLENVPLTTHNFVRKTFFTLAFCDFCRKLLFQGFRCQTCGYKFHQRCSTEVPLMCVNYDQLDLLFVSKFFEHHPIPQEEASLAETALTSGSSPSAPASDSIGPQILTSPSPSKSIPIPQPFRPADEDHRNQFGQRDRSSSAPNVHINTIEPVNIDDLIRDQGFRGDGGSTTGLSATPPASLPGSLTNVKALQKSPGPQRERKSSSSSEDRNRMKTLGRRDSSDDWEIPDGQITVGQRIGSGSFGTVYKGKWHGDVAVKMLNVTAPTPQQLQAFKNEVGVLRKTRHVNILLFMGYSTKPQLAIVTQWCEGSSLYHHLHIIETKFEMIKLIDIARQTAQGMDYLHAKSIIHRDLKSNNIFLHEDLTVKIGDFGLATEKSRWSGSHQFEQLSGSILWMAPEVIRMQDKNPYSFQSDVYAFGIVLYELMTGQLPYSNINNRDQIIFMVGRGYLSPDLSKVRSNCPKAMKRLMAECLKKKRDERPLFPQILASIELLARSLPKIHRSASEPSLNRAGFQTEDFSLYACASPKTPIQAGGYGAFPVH
# Procedure: A Homogeneous Time Resolved Fluorescence (HTRF) kinase assay was established to assay the ability of compounds to inhibit human mutant Braf kinase activity on the substrate MEK1. […] The final concentration of the kinase reaction buffer is 50 mM Tris-HCL pH 7.5, 10 mM MgCl2, 0.5% glucose, 0.5 mM DTT, 0.01% BSA.
# The detection reaction proceeds for one hour and is read on a RubyStar (BMG Labtech) counter. IC50s for the test compounds are generated using Excel-XLfit software.
Structure (SMILES),pIC50 ([1]; threshold list),pIC50 [2],pIC50 ([1]; threshold lists)
"Cc1ccc2c(Nc3cccc(C(F)(F)F)c3)nccc2c1Nc1ncccc1-c1ccncn1 [Example 7, 6-methyl-N^5-(3-(4-pyrimidinyl)-2-pyridinyl)-N^1-(3-(trifluoromethyl)phenyl)-1,5-isoquinolinediamine]",≥ 6.30,≥ 6.60,–
"Cc1ccc2c(Nc3ccccc3)nccc2c1Nc1ncccc1-c1ccncn1 [Example 9, 6-methyl-N^1-phenyl-N^5-(3-(4-pyrimidinyl)-2-pyridinyl)-1,5-isoquinolinediamine]",≥ 6.30,≥ 6.60,–
"Cc1ccc2c(Nc3cccc(C(C)(C)C)c3)nccc2c1Nc1ncccc1-c1ccncn1 [Example 10, N^1-(3-(1,1-dimethylethyl)phenyl)-6-methyl-N^5-(3-(4-pyrimidinyl)-2-pyridinyl)-1,5-isoquinolinediamine]",≥ 6.30,≥ 6.60,–
"Cc1ccc2c(Nc3cccc(C(C)C)c3)nccc2c1Nc1ncccc1-c1ccncn1 [Example 12, 6-methyl-N^1-(3-(1-methylethyl)phenyl)-N^5-(3-(4-pyrimidinyl)-2-pyridinyl)-1,5-isoquinolinediamine]",≥ 6.30,≥ 6.60,–
"Cc1ccc2c(Nc3cccc(OC(C)C)c3)nccc2c1Nc1ncccc1-c1ccncn1 [Example 13, 6-methyl-N^1-(3-((1-methylethyl)oxy)phenyl)-N^5-(3-(4-pyrimidinyl)-2-pyridinyl)-1,5-isoquinolinediamine]",≥ 6.30,≥ 6.60,–
"Cc1ccc2c(Nc3cccc(Cl)c3)nccc2c1Nc1ncccc1-c1ccncn1 [Example 14, N^1-(3-chlorophenyl)-6-methyl-N^5-(3-(4-pyrimidinyl)-2-pyridinyl)-1,5-isoquinolinediamine]",≥ 6.30,≥ 6.60,–
"Cc1ccc2c(Nc3cc(C(C)(C)C)nn3C)nccc2c1Nc1ncccc1-c1ccncn1 [Example 15, N^1-(3-(1,1-dimethylethyl)-1-methyl-1H-pyrazol-5-yl)-6-methyl-N^5-(3-(4-pyrimidinyl)-2-pyridinyl)-1,5-isoquinolinediamine]",≥ 6.30,≥ 6.60,–
"Cc1ccc2c(Nc3cccc(OC(F)(F)F)c3)nccc2c1Nc1ncccc1-c1ccncn1 [Example 18, 6-methyl-N^5-(3-(4-pyrimidinyl)-2-pyridinyl)-N^1-(3-((trifluoromethyl)oxy)phenyl)-1,5-isoquinolinediamine]",≥ 6.30,≥ 6.60,–
"COc1ccc(Nc2nccc3c(Nc4ncccc4-c4ccncn4)c(C)ccc23)cc1C(F)(F)F [Example 19, 6-methyl-N^1-(4-(methyloxy)-3-(trifluoromethyl)phenyl)-N^5-(3-(4-pyrimidinyl)-2-pyridinyl)-1,5-isoquinolinediamine]",≥ 6.30,≥ 6.60,–
"CNc1ncc2cc(-c3c(C)ccc4c(Nc5cccc(OC(C)C)c5)nccc34)ccc2n1 [Example 25, N-methyl-6-(6-methyl-1-((3-((1-methylethyl)oxy)phenyl)amino)-5-isoquinolinyl)-2-quinazolinamine]",≥ 6.30,≥ 6.60,–
"CNc1ncc2cc(-c3c(C)ccc4c(Nc5cccc(C(C)C)c5)nccc34)ccc2n1 [Example 26, N-methyl-6-(6-methyl-1-((3-(1-methylethyl)phenyl)amino)-5-isoquinolinyl)-2-quinazolinamine]",≥ 6.30,≥ 6.60,–
"CNc1cc(-c2cccnc2Nc2c(C)ccc3c(Nc4cc(C(C)(C)C)nn4C)nccc23)ncn1 [Example 69, N^1-(3-tert-butyl-1-methyl-1H-pyrazol-5-yl)-6-methyl-N^5-(3-(6-(methylamino)pyrimidin-4-yl)pyridin-2-yl)isoquinoline-1,5-diamine]",–,–,≥ 5.30
CNc1ncc2cc(-c3c(C)ccc4c(Nc5ccc(C#N)cc5)nccc34)ccc2n1 [Example 103],≥ 6.30,–,≥ 6.00
CNc1ncc2cc(-c3c(C)ccc4c(Nc5cccc(C#N)c5)nn(C)c34)ccc2n1 [Example 196],≥ 6.30,–,–
"CNc1cc(-c2cccnc2F)ncn1 [Example 345, 6-(2-fluoropyridin-3-yl)-N-methylpyrimidin-4-amine]",≥ 6.30,–,≥ 6.00
CNc1cc(-c2cccnc2Nc2c(C)ccc3c(Nc4cc(C(F)(F)F)ccc4C)nccc23)ncn1 [Example 349],–,–,≥ 5.30
"CNc1ncc2cc(-c3c(C)ccc4c(Nc5cccc(C(F)(F)F)c5)nccc34)c(=O)n(C)c2n1 [Example 354, 8-methyl-6-(6-methyl-1-(3-(trifluoromethyl)phenylamino)isoquinolin-5-yl)-2-(methylamino)pyrido[2,3-d]pyrimidin-7(8H)-one]",–,–,≥ 5.30
"CNc1ncc2cc(-c3c(C)ccc4c(Nc5cncc(OC(C)C)c5)nccc34)ccc2n1 [Example 378, 6-(1-(5-isopropoxypyridin-3-ylamino)-6-methylisoquinolin-5-yl)-N-methylquinazolin-2-amine]",–,≥ 6.00,–
"CNc1nccc(-c2cccnc2Oc2c(C)ccc3c(Nc4cccc(OC(F)(F)F)c4)nccc23)n1 [Example 413, 6-methyl-5-(3-(2-(methylamino)pyrimidin-4-yl)pyridin-2-yloxy)-N-(3-(trifluoromethoxy)phenyl)isoquinolin-1-amine]",–,–,≥ 5.30
"CNc1ncc2cc(-c3c(C)ccc4c(Nc5cccc(C(C)(C)O)c5)nncc34)ccc2n1 [Example 433, 2-(3-(6-methyl-5-(2-(methylamino)quinazolin-6-yl)phthalazin-1-ylamino)phenyl)propan-2-ol]",–,–,≥ 5.30
CNc1ncc2cc(-c3c(C)ccc4c(Nc5ccc6c(c5)NC(=O)CC6(C)C)nnc(C)c34)ccc2n1 [Example 438],≥ 6.30,–,–

# Second part, the compound after the results:
pIC50 ([1]; threshold list),pIC50 [2],pIC50 ([1]; threshold lists),Structure (SMILES)
≥ 6.30,≥ 6.60,–,"COc1cc(Nc2nccc3c(Nc4ncccc4-c4ccncn4)cccc23)cc(C(F)(F)F)c1 [Example 8, N^1-(3-(methyloxy)-5-(trifluoromethyl)phenyl)-N^5-(3-(4-pyrimidinyl)-2-pyridinyl)-1,5-isoquinolinediamine]"
≥ 6.30,≥ 6.60,–,"Cc1ccc2c(Nc3cccc(N(C)C)c3)nccc2c1Nc1ncccc1-c1ccncn1 [Example 11, N^1-(3-(dimethylamino)phenyl)-6-methyl-N^5-(3-(4-pyrimidinyl)-2-pyridinyl)-1,5-isoquinolinediamine]"
≥ 6.30,≥ 6.60,–,"Cc1ccc2c(Nc3ccc(C(C)(C)C)cc3)nccc2c1Nc1ncccc1-c1ccncn1 [Example 16, N^1-(4-(1,1-dimethylethyl)phenyl)-6-methyl-N^5-(3-(4-pyrimidinyl)-2-pyridinyl)-1,5-isoquinolinediamine]"
≥ 6.30,≥ 6.60,–,"CNc1nccc2c(Nc3ncccc3-c3ccncn3)c(C)ccc12 [Example 17, N^1-6-dimethyl-N^5-(3-(4-pyrimidinyl)-2-pyridinyl)-1,5-isoquinolinediamine]"
≥ 6.30,≥ 6.60,–,"CNc1ncc2cc(-c3c(C)ccc4c(Nc5cccc(C(F)(F)F)c5)nccc34)ccc2n1 [Example 24, N-methyl-6-(6-methyl-1-((3-(trifluoromethyl)phenyl)amino)-5-isoquinolinyl)-2-quinazolinamine]"
≥ 6.30,≥ 6.60,–,"CNc1ncc2cc(-c3c(C)ccc4c(Nc5cc(C(C)(C)C)on5)nccc34)ccc2n1 [Example 27, 6-(1-((5-(1,1-dimethylethyl)-3-isoxazolyl)amino)-6-methyl-5-isoquinolinyl)-N-methyl-2-quinazolinamine]"
–,–,≥ 5.30,"CNc1ncc2cc(-c3c(C)ccc4c(Nc5cccc(OC(F)(F)F)c5)nc(C)nc34)ccc2n1 [Example 86, 6-(2,7-dimethyl-4-(3-(trifluoromethoxy)phenylamino)quinazolin-8-yl)-N-methylquinazolin-2-amine]"
≥ 6.30,–,≥ 6.00,CNc1ncc2cc(-c3c(C)ccc4c(Nc5cccnc5)nn(C)c34)ccc2n1 [Example 163]
–,≥ 6.60,–,"Cc1ccc(C(F)(F)F)cc1Nc1nccc2c(Nc3ncccc3-c3ccncn3)c(C)ccc12 [Example 344, 6-methyl-N1-(2-methyl-5-(trifluoromethyl)phenyl)-N5-(3-(pyrimidin-4-yl)pyridin-2-yl)isoquinoline-1,5-diamine]"
–,≥ 6.60,–,CNc1ncc2cc(-c3cccc4c(Nc5cccc(C(F)(F)F)c5)nccc34)c(=O)n(C)c2n1 [Example 360]
–,≥ 6.60,–,"Cc1ccc2c(Nc3cccc(C(F)(F)F)c3)nccc2c1-c1ccc2nc(N)ncc2c1 [Example 361, 6-(6-methyl-1-(3-(trifluoromethyl)phenylamino)isoquinolin-5-yl)quinazolin-2-amine]"
